Entries after “also recorded” stand apart in the source; their conditions may differ.
Columns and labels:
[1] = 12-month treatment of ovariectomized rats with DHEA alone or with Flutamide or EM-800: bone histomorphometry, bone markers, serum lipids; assay type: in vivo, rat; conditions: 12 months
[2] = 10% DHEA cream once daily for 12 months in 60 to 70 year old women; assay type: in vivo
Text: The use of estrogen replacement therapy requires the addition of progestins to counteract the endometrial proliferation induced by estrogens while both estrogens and progestins could increase the risk of breast cancer (Bardon et al., 1985; Colditz et al., 1995). In order to avoid the limitations of standard estrogen (ERT) or hormonal replacement therapy (HRT), we have studied the effect of DHEA administration to 60 to 70 year old women for 12 months on bone mineral density, parameters of bone formation and turnover, serum lipids, glucose and insulin, adipose tissue mass, muscular mass, energy, well-being as well as on vaginal and endometrial histology (Diamond et al., 1996; Labrie et al., 1997c). DHEA was administered percutaneously to avoid first passage of the steroid precursor through the liver.
We have thus evaluated the effect of chronic replacement therapy with a 10% DHEA cream applied once daily for 12 months in 60 to 70 year old women (N=15). […] These changes in bone mineral density were accompanied by significant decreases at 12 months of 38% and 22% in urinary hydroxyproline and in plasma bone alkaline phosphatase, respectively (all p<0.05).

[3] = test system: ZR-75-1 human breast cancer xenografts; experiment: Tamoxifen and EM-652.HCl alone or combined on growth of ZR-75-1 xenografts in nude mice (FIG. 7); assay type: in vivo; conditions: hydrochloride
[4] = test system: human Ishikawa cells; experiment: Alkaline phosphatase activity in human endometrial adenocarcinoma Ishikawa cells (Example 6)

C[C@]12CC[C@H](O)CC1=CC[C@@H]1[C@@H]2CC[C@]2(C)C(=O)CC[C@@H]12 [DHEA, dehydroepiandrosterone]
reduction of serum cholesterol versus OVX control [1]: 22% | Alkaline phosphatase (serum) ([1]; OVX rats): 201±25 IU/L | CHOLESTEROL (serum) ([1]; OVX rats): 1.78 ± 0.16 mmol/L | OH-proline/creatinin (urine) ([1]; OVX rats): 7.3±1.0 μmol/mmol | Triglycerides (serum) ([1]; OVX rats): 0.8 ± 0.1 mmol/L | increase in trabecular bone number compared to ovariectomized controls ([1]; OVX rats): 137% | trabecular bone number ([1]; OVX rats): 1.27±0.1 per mm | trabecular bone volume of the tibia ([1]; OVX rats): 11.9±0.6% | decrease in fasting plasma insulin levels [2]: 17% | decrease in plasma bone alkaline phosphatase [2]: 22% | decrease in subcutaneous skin fold thickness [2]: 9.8% | decrease in urinary hydroxyproline [2]: 38% | decrease of fasting plasma glucose [2]: 12% | decrease of femoral fat (mid-thigh, computed tomography) [2]: 3.8% | effect on the endometrium [2]: remained completely atrophic | increase in femoral muscular area [2]: 3.5% | increase of bone mass density at the hip [2]: 2.3% | increase of bone mass density at the hip Ward's triangle [2]: 3.75% | increase of bone mass density at the lumbar spine level [2]: 2.2% | increase of the index of sebum secretion [2]: 79% | increase over control in plasma osteocalcin [2]: 135% | women with stimulated vaginal epithelium maturation among those with a maturation value of zero at onset [2]: 8 out of 10

CC1=C(c2ccc(O)cc2)[C@H](c2ccc(OCCN3CCCCC3)cc2)Oc2cc(O)ccc21.Cl [EM-652.HCl, (S)-(+)-7-hydroxy-3-(4′-hydroxyphenyl)-4-methyl-2-(4″-(2′″-piperidinoethoxy)phenyl)-2H-1-benzopyran hydrochloride]
effect on growth of ZR-75-1 xenografts [3]: did not exert any stimulatory effect; also recorded: no effect on tumor growth | IC50 ([4]; Homo sapiens, Ishikawa, 120 h, read-out: Inhibition of 1 nM E2-induced stimulation of alkaline phosphatase IC50): 1.52 ± 0.22 nM | Emax ([4]; Homo sapiens, Ishikawa, 120 h, read-out: Maximal stimulation of alkaline phosphatase % of 1 nM E2 stimulation): 1.88 ± 0.26% | Maximal inhibition of 1 nM E2-induced stimulation of alkaline phosphatase ([4]; Ishikawa cells, 5-day incubation, 1 nM E2): 98.97 ± 0.174 (18)

From US11452731B2, “Method of treating and preventing loss of cognition” (ENDORECHERCHE, INC., priority 2009, dated 2022)
